Measured values from ChEMBL document CHEMBL3856187, “Cyclin Dependent Kinase 9 Inhibitors for Cancer Therapy” (J Med Chem, 2016).
Each block holds one compound with its values, some of them ahead of it.

Key:
[1] = biological target: T1, CDK9/cyclin T1 (Homo sapiens, UniProt P50750); assay: Inhibition of CDK9/cyclin T1 (unknown origin) using cdk7tide peptide as substrate; assay type: protein-complex assay
[2] = biological target: T2, Cyclin-dependent kinase 1/cyclin B1 (Homo sapiens, UniProt P06493); assay: Inhibition of recombinant human CDK1/cyclin B expressed in baculovirus infected Sf9 insect cells after 80 mins in presence of [33P]ATP by microbeta scintillation counting analysis
T2 sequence (P06493 whole entry): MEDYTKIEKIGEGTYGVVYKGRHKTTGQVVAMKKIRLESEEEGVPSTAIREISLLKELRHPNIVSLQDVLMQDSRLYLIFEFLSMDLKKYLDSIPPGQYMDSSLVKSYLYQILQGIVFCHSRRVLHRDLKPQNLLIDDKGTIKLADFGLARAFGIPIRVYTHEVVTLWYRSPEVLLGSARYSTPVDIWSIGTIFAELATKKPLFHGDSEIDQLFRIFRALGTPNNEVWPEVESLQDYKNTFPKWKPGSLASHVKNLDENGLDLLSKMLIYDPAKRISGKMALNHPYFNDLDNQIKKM
T2 sequence (P14635 whole entry, further chain): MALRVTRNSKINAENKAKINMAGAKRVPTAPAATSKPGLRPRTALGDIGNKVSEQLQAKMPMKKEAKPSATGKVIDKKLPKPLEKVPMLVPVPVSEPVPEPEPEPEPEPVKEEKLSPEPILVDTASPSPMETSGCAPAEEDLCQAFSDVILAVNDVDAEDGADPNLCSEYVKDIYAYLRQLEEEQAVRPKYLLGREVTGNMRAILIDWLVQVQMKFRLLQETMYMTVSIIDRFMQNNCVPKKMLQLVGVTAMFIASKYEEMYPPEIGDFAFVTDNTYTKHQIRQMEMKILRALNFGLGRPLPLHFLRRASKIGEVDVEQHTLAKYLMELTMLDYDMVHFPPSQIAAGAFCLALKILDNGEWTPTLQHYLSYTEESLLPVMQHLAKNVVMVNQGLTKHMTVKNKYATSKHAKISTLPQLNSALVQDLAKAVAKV

[3] = biological target: CDK2/Cyclin A1 (Homo sapiens, UniProt P24941); assay: Inhibition of recombinant human His/GST-tagged CDK2/Cyclin A expressed in baculovirus infected Sf9 cells using Histone H1 as substrate after 80 mins in presence of [33P]ATP by microbeta scintillation counting analysis
[4] = biological target: T3, CDK3/Cyclin E (Homo sapiens, UniProt Q00526); assay: Inhibition of recombinant human CDK3/cyclin E expressed in baculovirus infected Sf9 insect cells after 80 mins in presence of [33P]ATP by microbeta scintillation counting analysis
T3 sequence (P24864 whole entry): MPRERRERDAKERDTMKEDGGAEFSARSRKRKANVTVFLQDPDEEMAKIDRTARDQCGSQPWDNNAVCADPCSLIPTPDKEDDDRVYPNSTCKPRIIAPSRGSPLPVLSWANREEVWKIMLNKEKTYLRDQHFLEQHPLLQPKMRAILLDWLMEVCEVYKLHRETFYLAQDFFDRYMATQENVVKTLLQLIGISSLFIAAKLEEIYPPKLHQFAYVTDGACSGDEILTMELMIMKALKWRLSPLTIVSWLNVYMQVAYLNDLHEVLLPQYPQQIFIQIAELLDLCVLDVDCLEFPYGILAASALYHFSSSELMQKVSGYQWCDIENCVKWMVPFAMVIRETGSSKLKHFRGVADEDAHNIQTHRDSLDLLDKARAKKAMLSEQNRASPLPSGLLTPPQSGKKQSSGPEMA
T3 sequence (Q00526 whole entry): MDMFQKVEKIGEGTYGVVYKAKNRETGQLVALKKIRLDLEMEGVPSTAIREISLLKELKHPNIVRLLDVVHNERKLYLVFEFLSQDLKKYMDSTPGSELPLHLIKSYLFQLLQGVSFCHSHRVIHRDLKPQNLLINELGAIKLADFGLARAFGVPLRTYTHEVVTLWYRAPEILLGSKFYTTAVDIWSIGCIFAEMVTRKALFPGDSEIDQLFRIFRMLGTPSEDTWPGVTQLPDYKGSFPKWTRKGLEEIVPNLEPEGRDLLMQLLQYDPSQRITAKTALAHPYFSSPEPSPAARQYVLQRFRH

[5] = biological target: T4, Cyclin-dependent kinase 5/CDK5 activator 1 (Homo sapiens, UniProt Q00535); assay: Inhibition of recombinant human His/GST-tagged CDK5/p35 expressed in baculovirus infected Sf9 insect cells using Rb-CTF as substrate after 80 mins in presence of [33P]ATP by microbeta scintillation counting analysis
T4 sequence (Q00535 whole entry): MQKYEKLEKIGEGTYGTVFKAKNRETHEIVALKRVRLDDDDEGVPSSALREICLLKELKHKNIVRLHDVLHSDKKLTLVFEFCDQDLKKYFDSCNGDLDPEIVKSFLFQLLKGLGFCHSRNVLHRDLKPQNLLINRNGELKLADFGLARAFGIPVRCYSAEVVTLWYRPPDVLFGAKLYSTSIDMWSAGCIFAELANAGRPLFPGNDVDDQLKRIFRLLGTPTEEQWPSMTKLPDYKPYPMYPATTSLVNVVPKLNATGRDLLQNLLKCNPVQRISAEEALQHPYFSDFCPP
T4 sequence (Q15078 whole entry, further chain): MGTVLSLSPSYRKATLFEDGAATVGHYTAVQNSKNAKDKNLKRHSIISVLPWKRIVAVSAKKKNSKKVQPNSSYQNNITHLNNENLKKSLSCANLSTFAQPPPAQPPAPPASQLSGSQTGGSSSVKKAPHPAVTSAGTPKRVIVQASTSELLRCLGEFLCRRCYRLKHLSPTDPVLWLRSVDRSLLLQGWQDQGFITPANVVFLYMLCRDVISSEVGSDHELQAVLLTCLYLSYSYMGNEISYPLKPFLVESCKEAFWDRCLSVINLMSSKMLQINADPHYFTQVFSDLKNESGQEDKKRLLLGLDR

[6] = biological target: CDK7/Cyclin H/MNAT1 (Homo sapiens, UniProt P50613); assay: Inhibition of recombinant human full length C-terminal His6-tagged CDK7/cyclin H/N-terminal GST-tagged MAT1 expressed in baculovirus infected Sf21 insect cells using cdk7 substrate peptide
[7] = biological target: T5, Cyclin-dependent kinase 5 (Homo sapiens, UniProt Q00535); assay: Inhibition of human GST-tagged CDK5
T5 sequence (Q00535 whole entry): as the sequence (Q00535 whole entry) above

[8] = biological target: Cyclin-dependent kinase 1 (Homo sapiens, UniProt P06493); assay: Inhibition of CDK1 (unknown origin)
Chain of Cyclin-dependent kinase 1 (P06493 whole entry): as the sequence (P06493 whole entry) above

[9] = biological target: Receptor-type tyrosine-protein kinase FLT3 (Homo sapiens, UniProt P36888, D835Y); assay: Inhibition of human recombinant N-terminal GST-tagged FLT3 D835Y mutant expressed in baculovirus infected Sf21 insect cells using abltide as substrate
[10] = biological target: T3, CDK3/Cyclin E; assay: Inhibition of recombinant human full length C-terminal His6-tagged CDK3/N-terminal GST-tagged cyclin E expressed in baculovirus infected Sf21 insect cells using Histone H1 as substrate
[11] = biological target: CDK9/Cyclin K (Homo sapiens) (UniProt P50750+O75909); assay: Inhibition of human CDK9/cyclin K by radiometric assay relative to control; assay type: protein-complex assay; set-up: concentration or dose not given beside the values; conditions: concentration not given here
[12] = biological target: CDK9/cyclin T1 (Homo sapiens) (UniProt O60563+P50750); assay: Inhibition of human CDK9/cyclin T1 by radiometric assay relative to control; assay type: protein-complex assay; set-up: concentration or dose not given beside the values; conditions: concentration not given here
[13] = biological target: T1, CDK9/cyclin T1; assay: Inhibition of recombinant human His-tagged CDK9/cyclin T1 expressed in baculovirus infected sf9 cells using (biotinyl-Ahx-(Tyr-Ser-ProThr-Ser-Pro-Ser)4-NH2 as substrate after 45 mins by [gamma-32P]ATP based microbeta scintillation counting analysis
[14] = biological target: T4, Cyclin-dependent kinase 5/CDK5 activator 1; assay: Inhibition of CDK5/p35 (unknown origin); assay type: protein-complex assay
[15] = biological target: T3, CDK3/Cyclin E; assay: Inhibition of CDK3/cyclin E (unknown origin); assay type: protein-complex assay
[16] = biological target: T2, Cyclin-dependent kinase 1/cyclin B1; assay type: protein-complex assay
Description: Inhibition of CDK1/cyclin B (unknown origin)

[17] = biological target: T6, Cyclin-dependent kinase 2/cyclin E1 (Homo sapiens, UniProt P24941); assay: Inhibition of CDK2/cyclin E (unknown origin); assay type: protein-complex assay
[18] = biological target: CDK6/cyclin D3 (Homo sapiens, UniProt Q00534); assay: Inhibition of CDK6/cyclin D3 (unknown origin); assay type: protein-complex assay
[19] = biological target: Cyclin-dependent kinase 7/ cyclin H (Homo sapiens, UniProt P50613); assay: Inhibition of CDK7/cyclin H (unknown origin); assay type: protein-complex assay
[20] = biological target: Cyclin-dependent kinase 4/cyclin D1 (Homo sapiens, UniProt P11802); assay: Inhibition of recombinant CDK4/cyclin D1 (unknown origin); assay type: protein-complex assay
Chain of Cyclin-dependent kinase 4/cyclin D1 (P11802 whole entry): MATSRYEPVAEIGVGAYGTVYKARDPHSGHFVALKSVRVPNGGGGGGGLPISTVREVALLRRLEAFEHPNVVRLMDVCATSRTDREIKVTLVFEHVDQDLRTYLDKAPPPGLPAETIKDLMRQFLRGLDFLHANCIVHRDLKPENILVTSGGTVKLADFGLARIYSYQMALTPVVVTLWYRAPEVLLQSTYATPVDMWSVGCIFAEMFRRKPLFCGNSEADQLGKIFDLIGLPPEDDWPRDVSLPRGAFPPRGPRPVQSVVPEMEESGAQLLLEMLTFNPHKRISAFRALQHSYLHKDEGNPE
Chain of Cyclin-dependent kinase 4/cyclin D1 (P24385 whole entry, further chain): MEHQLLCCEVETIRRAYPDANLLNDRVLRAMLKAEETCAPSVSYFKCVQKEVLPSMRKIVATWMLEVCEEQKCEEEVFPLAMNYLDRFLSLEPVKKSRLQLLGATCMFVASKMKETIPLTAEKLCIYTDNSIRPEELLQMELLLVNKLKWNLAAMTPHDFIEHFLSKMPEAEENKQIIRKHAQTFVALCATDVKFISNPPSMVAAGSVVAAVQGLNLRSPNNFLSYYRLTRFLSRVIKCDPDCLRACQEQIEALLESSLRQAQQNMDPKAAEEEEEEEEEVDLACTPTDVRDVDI

[21] = Antiproliferative activity against human DU145 cells after 4 days by crystal violet staining based assay; assay type: functional, cell-based; conditions: DU-145, 96 h
[22] = Antiproliferative activity against human HeLa/MaTu/ADR cells after 4 days by crystal violet staining based assay; assay type: functional, cell-based; conditions: 96 h
[23] = Antiproliferative activity against human Caco2 cells after 4 days by crystal violet staining based assay; assay type: functional, cell-based; conditions: Caco-2, 96 h
[24] = Antiproliferative activity against human H460 cells after 4 days by crystal violet staining based assay; assay type: functional, cell-based; conditions: NCI-H460, 96 h
[25] = Antiproliferative activity against human HeLa cells after 4 days by crystal violet staining based assay; assay type: functional, cell-based; conditions: 96 h
[26] = Antiproliferative activity against mouse B16F10 cells after 4 days by crystal violet staining based assay; assay type: functional, cell-based; conditions: B16-F10, 96 h
[27] = biological target: T6, Cyclin-dependent kinase 2/cyclin E1; assay: Inhibition of human recombinant GST-tagged CDK2/cyclin E expressed in Sf9 insect cells using biotin-Ttds-YISPLKSPYKISEG as substrate preincubated for 15 mins followed by substrate addition measured after 25 mins by TR-FRET assay
[28] = Inhibition of CDK6/cyclin D (unknown origin); set-up: species or system Homo sapiens
[29] = biological target: T6, Cyclin-dependent kinase 2/cyclin E1; assay: Inhibition of recombinant human His6-tagged CDK2/cyclin E expressed in baculovirus infected sf9 cells using histone H1 susbtrate in presence of [gamma32P]ATP after 10 mins by scintillation counting method
[30] = biological target: Tyrosine-protein kinase JAK2 (Homo sapiens, UniProt O60674); assay: Inhibition of human recombinant GST-tagged JAK2 expressed in baculovirus expression system
[31] = biological target: T1, CDK9/cyclin T1; assay: Inhibition of human His6-tagged CDK9/cyclin T1 expressed in baculovirus infected sf9 cells using GST-CTD as substrate after 10 mins in presence of [gamma-32P]ATP by SDS-PAGE analysis
[32] = Cytotoxicity against human HeLa cells assessed as decrease in cell viability after 72 hrs by MTT assay; assay type: toxicity, cell-based
[33] = biological target: CDK2/Cyclin A2 (Homo sapiens, UniProt P24941); assay: Inhibition of human full length C-terminal His6-tagged CDK2/N-terminal GST-tagged cyclin A using histone H1 as substrate after 10 mins by [gamma-32P]ATP based binding assay; assay type: protein-complex assay
[34] = biological target: Cyclin-dependent kinase 4 (Homo sapiens, UniProt P11802); assay: Inhibition of CDK4 (unknown origin)
Chain of Cyclin-dependent kinase 4 (P11802 whole entry): as the sequence (P11802 whole entry) above

[35] = biological target: T5, Cyclin-dependent kinase 5; assay: Inhibition of CDK5 (unknown origin)
[36] = biological target: Cyclin-dependent kinase 9 (Homo sapiens, UniProt P50750); assay: Inhibition of human CDK9 (unknown origin)
Chain of Cyclin-dependent kinase 9 (P50750 whole entry, the tested form may be a part): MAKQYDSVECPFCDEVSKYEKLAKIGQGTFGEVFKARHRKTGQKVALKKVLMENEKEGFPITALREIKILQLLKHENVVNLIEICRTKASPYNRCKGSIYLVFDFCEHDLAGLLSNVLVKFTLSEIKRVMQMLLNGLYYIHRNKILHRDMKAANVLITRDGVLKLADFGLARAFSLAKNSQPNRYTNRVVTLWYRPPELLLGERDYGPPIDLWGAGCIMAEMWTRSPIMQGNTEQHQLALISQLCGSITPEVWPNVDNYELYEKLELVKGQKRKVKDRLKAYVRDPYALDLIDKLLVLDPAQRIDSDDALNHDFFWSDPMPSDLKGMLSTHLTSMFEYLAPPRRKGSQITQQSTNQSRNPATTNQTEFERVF

[37] = biological target: Cyclin-dependent kinase 2 (Homo sapiens, UniProt P24941); assay: Binding affinity to full length human CDK2 (1 to 298 residues) expressed in bacterial expression system by KINOMEscan competition assay
[38] = biological target: Cyclin-dependent kinase 3 (Homo sapiens, UniProt Q00526); assay: Inhibition of CDK3 (unknown origin)
Chain of Cyclin-dependent kinase 3 (Q00526 whole entry): as the sequence (Q00526 whole entry) above

[39] = biological target: T1, CDK9/cyclin T1; assay: Inhibition of recombinant human full length C-terminal His6-tagged CDK9/cyclin T1 expressed in baculovirus infected Sf21 insect cells using 5TAMRA-cdk7tide as substrate after 4.5 hrs by IMAP assay

T1 sequence (O60563 whole entry): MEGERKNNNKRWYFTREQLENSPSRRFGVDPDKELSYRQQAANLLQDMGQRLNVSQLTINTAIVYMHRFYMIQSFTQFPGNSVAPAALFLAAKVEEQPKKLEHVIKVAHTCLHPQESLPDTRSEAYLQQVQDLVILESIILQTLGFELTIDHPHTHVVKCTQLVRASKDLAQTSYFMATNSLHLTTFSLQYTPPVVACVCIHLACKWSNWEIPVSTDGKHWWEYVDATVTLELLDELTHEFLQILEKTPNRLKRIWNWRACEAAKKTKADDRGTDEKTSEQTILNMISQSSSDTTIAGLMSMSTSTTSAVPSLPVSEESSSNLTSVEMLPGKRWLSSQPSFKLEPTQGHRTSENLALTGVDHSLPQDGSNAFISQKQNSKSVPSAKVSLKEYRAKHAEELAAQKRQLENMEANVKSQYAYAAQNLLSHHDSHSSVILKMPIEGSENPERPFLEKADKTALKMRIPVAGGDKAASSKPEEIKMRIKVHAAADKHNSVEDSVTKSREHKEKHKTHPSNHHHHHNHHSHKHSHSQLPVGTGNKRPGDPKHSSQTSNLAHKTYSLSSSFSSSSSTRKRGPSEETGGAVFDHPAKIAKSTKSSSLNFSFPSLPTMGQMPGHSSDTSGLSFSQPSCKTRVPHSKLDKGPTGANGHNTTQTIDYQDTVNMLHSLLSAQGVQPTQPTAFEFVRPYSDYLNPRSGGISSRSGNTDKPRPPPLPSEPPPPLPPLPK
T1 sequence (P50750 whole entry): as the sequence (P50750 whole entry, the tested form may be a part) above

SMILES: CN1C/C=C/CCOc2cccc(c2)-c2ccnc(n2)Nc2cccc(c2)C1 [ZOTIRACICLIB]
IC50 [6]: 3 to 15 nM
IC50 [7]: 3 to 15 nM
IC50 [8]: 3 to 15 nM
IC50 [9]: 21 nM
IC50 [10]: 3 to 15 nM

SMILES: Nc1nc(Nc2ccc(S(N)(=O)=O)cc2)nn1C(=S)Nc1c(F)cccc1F
inhibition [11]: > 75%
inhibition [12]: > 75%

SMILES: Cc1c(-c2ccnc(Nc3ccc(N4CCNCC4)cc3)n2)sc(=O)n1C
Ki [13]: 0.4 nM

SMILES: O=C1Nc2ccc3ncsc3c2/C1=C/c1c[nH]cn1
inhibition [11]: > 75%
inhibition [12]: > 75%

SMILES: CS(=N)(=O)Cc1cccc(Nc2ncnc(-c3ccc(F)cc3OCc3cccc(F)c3)n2)c1 (centres undefined)
IC50 [21]: 110 nM
IC50 [22]: 100 nM
IC50 [23]: 80 nM
IC50 [24]: 110 nM
IC50 [25]: 170 nM
IC50 [26]: 100 nM
IC50 [27]: 260 nM

SMILES: CC(C)(C)c1cnc(CSc2cnc(NC(=O)C3CCNCC3)s2)o1 [BMS-387032]
IC50 [28]: > 1000 nM

SMILES: O=C1CC/C=C\COc2cccc(c2)-c2ccnc(n2)Nc2cccc(c2)N1
IC50 [29]: 2600 nM
IC50 [30]: 1700 nM

SMILES: O=C(NC1CCNCC1)c1n[nH]cc1NC(=O)c1c(Cl)cccc1Cl [AT-7519]
Ki [28]: 660 nM

SMILES: COc1ccccc1-c1cc(Nc2ccc(F)c(NS(C)(=O)=O)c2)ncn1
Ki [34]: > 1000 nM
Ki [35]: > 1000 nM
Ki [36]: 17 nM
Ki [8]: > 1000 nM
Ki [37]: > 1000 nM
Ki [38]: > 1000 nM

SMILES: CN[C@H]1C[C@@H]2O[C@@](C)(C3c4ccccc4-c4c5c(c6c(c43)C2c2ccccc2-6)C(=O)NC5=O)[C@H]1OC (some centres undefined)
inhibition [11]: > 75%
inhibition [12]: > 75%

SMILES: NCCCNc1cc(-c2cncc(NCC3CCOCC3)c2)c(Cl)cn1
IC50 [39]: 1860 nM

SMILES: CS(=O)(=O)Cc1cccc(Nc2ncnc(-c3ccc(F)cc3OCc3ccccc3)n2)c1
IC50 [22]: 100 nM
IC50 [24]: 150 nM
IC50 [25]: 100 nM
IC50 [26]: 130 nM

The next lines start with results.

IC50 [1]: 10 nM
IC50 [2]: 913 to 1880 nM
IC50 [3]: 913 to 1880 nM
IC50 [4]: 913 to 1880 nM
IC50 [5]: 913 to 1880 nM
SMILES: COc1cc(F)ccc1-c1ccnc(NC(=O)[C@@H]2CC[C@H](NC(C)=O)C2)c1

IC50 [14]: 2 to 55 nM
IC50 [15]: 2 to 55 nM
IC50 [16]: 2 to 55 nM
IC50 [17]: 2 to 55 nM
IC50 [18]: 2 to 55 nM
IC50 [19]: 2 to 55 nM
IC50 [20]: 2 to 55 nM
SMILES: COCCN1CCN(Cc2ccc(-c3n[nH]c4c3C(=O)c3c(NC(=O)NN5CCOCC5)cccc3-4)cc2)CC1 [RGB-286638]

IC50 [31]: 19 nM
IC50 [33]: 302 nM
SMILES: CN1CC[C@H](c2c(O)cc(O)c3c(=O)cc(-c4ccc(C(F)(F)F)cc4)oc23)[C@H](O)C1
CC50 at 72 h [32]: 1200 nM

IC50 [16]: 25 nM
IC50 [20]: 90 nM
SMILES: CN1CC[C@@H](c2c(O)cc(O)c3c(=O)cc(-c4ccc(C(F)(F)F)cc4Cl)oc23)[C@@H]1CO [VORUCICLIB]

IC50 [31]: 5.5 nM
IC50 [33]: 224 nM
SMILES: CN1CC[C@H](c2c(O)cc(O)c3c(=O)cc(-c4ccc(Br)cc4)oc23)[C@H](O)C1
CC50 at 72 h [32]: 280 nM

IC50 [31]: 9.6 nM
IC50 [33]: 196 nM
SMILES: CN1CC[C@H](c2c(O)cc(O)c3c(=O)cc(-c4ccc(O)cc4)oc23)[C@H](O)C1
CC50 at 72 h [32]: 20900 nM

inhibition [11]: > 75%
inhibition [12]: > 75%
SMILES: O=C1NC(=O)c2c1c1c3c4c2-c2ccccc2C4C2CCC(O2)C3c2ccccc2-1 (centres undefined)
